Measured values from patent US5677288A, “Use of aminoglycosides to protect against excitotoxic neuron damage” (Cypros Pharmaceutical Corporation, priority 1994, dated 1997).
“Also recorded” adds a separate entry of the source. Where two headings read alike, the source gives them in different places.

Legend:
[1] = system: N-type calcium channels (N-channels); type: binding, rats or mice; details: for IC50: omega-conotoxin binding, brain membrane fragments, read-out: N-channel IC50
[2] = target: L-type Ca2+ channel; assay: inhibition of tritiated dihydropyridine PN-200 binding to the L-type Ca2+ channel; details: in words
Procedure: These tests were carried out as follows. Brain tissue was used from rats or mice that had been anesthetized with halothane and decapitated. Membrane fractions were prepared as follows. Tissue samples were mixed with 25 tissue-volumes of 50 mM Tris-HCl buffer, pH 7.5. Tissue-buffer mixtures were homogenized using a Brinkman Polytron homogenizer, and resulting tissue homogenate was centrifuged at 2,400 g to pellet non-membrane derived material. The supernatant containing the brain membrane fragments was centrifuged at 30,000 g in a refrigerated (4° C.) centrifuge for 20 minutes. The pellet was resuspended in 100 tissue-volumes of the Tris-HCl buffer and centrifuged again as above. The process was repeated two more times, and the resulting pellet was resuspended in Tris-HCl buffer solution. The suspended tissue contained synaptosomal and other neurally derived membrane fragments with intact N-channels.

[3] = system: PTZ-induced seizures; assay: PTZ-induced seizures in mice (ICV); type: in vivo, Swiss Webster mice; details: for % having seizures: PTZ 70 mg/kg
Procedure: In addition to the in vivo gerbil experiments described in Example 4, aminoglycosides were tested in various ways to evaluate their ability to inhibit experimentally-induced seizures in mice. In one set of tests, male Swiss Webster white mice weighing 20-25 grams were used. The animals (10 per group) were pre-injected with 3 microliters (μL) of either a saline solution (control group), or saline solution containing varying dosages of neomycin sulfate. The injection was performed via the […] route, to insure access of the neomycin to neurons; when these experiments were initially performed, questions concerning the ability of neomycin to penetrate the BBB had not yet been addressed. These injections were performed as described in Haley and McCormick 1957. Twenty minutes after the injections, the animals were administered a dose of 70 mg/kg of the convulsion-inducing drug pentylenetetrazol (PTZ), injected subcutaneously in saline solution. Control animals treated with ICV saline have full seizures within seven minutes following this dose of PTZ.

[4] = system: PTZ-induced seizures; details: in words; not measured in these tests; cited from earlier work
[5] = system: electroconvulsive seizures; assay: electroconvulsive seizures (ECS) in mice; details: ICV, scale one to six, six = no seizure activity
Procedure: This was accomplished using a set of platinum electrodes placed subcutaneously in two skull regions of Swiss Webster (20-25 gram) mice. The stimulus voltage was 22 mv at a duration of 0.125 mSec.
The seizures were graded on a severity scale of one to six. A score of six represented a complete absence of seizure activity, while a score of one represented the presence of a full tonic-clonic seizure with total hind leg extension. Test drugs were administered via the ICV route in a total volume of 2.5 microliters, 15 minutes prior to the administration of the electroconvulsive shock.

[6] = system: PTZ-induced seizures; assay: PTZ-induced seizures in rats (ICV or IP); details: 2 mg/kg
Procedure: Seizure studies were also performed in male Sprague Dawley rats (250-300 grams). In these studies, cannulas were implanted in the lateral cerebral ventricles of several animals so that the test drugs could be administered directly into the lateral ventricle of the brain. The drugs being tested were administered 15 minutes before the administration of a convulsant drug, PTZ, at a dose of 60 mg/kg (in a saline vehicle) injected subcutaneously.
A second series of experiments was performed where neomycin sulfate was administered by the IP 30 minutes prior to PTZ injection.

[7] = system: CA1 neurons in hippocampal tissue slices; assay: protection of rat hippocampal tissue slices (CA1 population spike recovery) against hypoxia; type: cell-based, Sprague-Dawley rats
[8] = system: N-channels on blood platelets; type: binding, human; details: approximate results from initial tests, read-out: Conotoxin blockage
[9] = system: blood platelets; assay: inhibition of ADP-induced platelet aggregation; type: cell-based, human; details: 20 μM ADP, approximate results from initial tests

`NCC[C@H](O)C(=O)N[C@@H]1C[C@H](N)[C@@H](O[C@H]2O[C@H](CN)[C@@H](O)[C@H](O)[C@H]2O)[C@H](O)[C@H]1O[C@H]1O[C@H](CO)[C@@H](O)[C@H](N)[C@H]1O` [Amikacin] gave an IC50 [1] of 45 µM.
For `NC[C@H]1O[C@H](O[C@H]2[C@H](O)[C@@H](O[C@H]3O[C@H](CO)[C@@H](O)[C@H](N)[C@H]3O)[C@H](N)C[C@@H]2N)[C@H](N)[C@@H](O)[C@@H]1O` [Bekanamycin], the IC50 [1] was greater than 100 µM and the “L-channel IC50” value [2] was “No inhibition”.
For `OC[C@H]1O[C@@H](n2cnc3c(NC4CCCCC4)ncnc32)[C@H](O)[C@@H]1O` [Cyclohexyladenosine, cyclohexyladenosine], the “% having seizures” value ([3]; 2 μg) is listed as 40%, the behavioral side effects ([3]; in words) is listed as “various behavioral side effects such as ataxia (lack of muscular control, as evidenced by an inability to walk properly) and sedation” and the “known cardiovascular side effects” value [4] is listed as “known to provoke hypotension and bradycardia”.
For `CN1C(=O)CN=C(c2ccccc2)c2cc(Cl)ccc21` [Diazepam], the “Seizure Score” value ([5]; 5 ug) was 4.4 and the “% having seizures” value [6] was 75%.
For `NC[C@@H]1CC[C@@H](N)[C@@H](O[C@H]2[C@H](O)[C@@H](O[C@H]3O[C@H](CO)[C@@H](O)[C@H](N)[C@H]3O)[C@H](N)C[C@@H]2N)O1` [Dibekacin], the IC50 [1] was 60 µM and the “L-channel IC50” value [2] was “No inhibition”.
In the case of `CNC1C(OC2C(OC3C(O)C(O)C(N=C(N)N)C(O)C3N=C(N)N)OC(C)C2(O)CO)OC(CO)C(O)C1O` (stereo not drawn) [Dihydrostreptomicin], the IC50 [1] is reported as greater than 50 µM.
`CN[C@H]1C[C@@H](N)[C@H](O)[C@@H](O[C@@H]2O[C@H](CO)[C@H](O)[C@@H]3OC4(O[C@H]23)O[C@H]([C@@H](N)CO)[C@H](O)[C@H](O)[C@H]4O)[C@@H]1O` (stereo partly drawn) [Hygromycin B] showed an IC50 [1] greater than 1000 µM.
In the case of `NC[C@H]1O[C@H](O[C@H]2[C@H](O)[C@@H](O[C@H]3O[C@H](CO)[C@@H](O)[C@H](N)[C@H]3O)[C@H](N)C[C@@H]2N)[C@H](O)[C@@H](O)[C@@H]1O` [Kanamycin], the IC50 [1] is reported as greater than 50 µM and the “L-channel IC50” value [2] is reported as “No inhibition”.
With `C[C@H]1O[C@H](O[C@H]2[C@H](O)[C@@H](O)[C@@H](O)[C@H](O)[C@@H]2O)[C@@H](N)C[C@@H]1NC(=N)C(=O)O` [Kasugamycin] the IC50 [1] was greater than 1000 µM.
With `NC[C@@H]1O[C@H](O[C@H]2[C@@H](O)[C@H](O[C@@H]3[C@@H](O)[C@H](N)C[C@H](N)[C@H]3O[C@H]3O[C@H](CO)[C@@H](O)C[C@H]3N)O[C@@H]2CO)[C@H](N)[C@@H](O)[C@@H]1O[C@H]1O[C@H](CO)[C@@H](O)[C@H](O)[C@@H]1O` [Lividomycin A] the IC50 [1] was 50 µM and the “L-channel IC50” value [2] was “No inhibition”.
Compound `NC[C@H]1O[C@H](O[C@H]2[C@H](O)[C@@H](O)[C@H](N)C[C@@H]2N)[C@H](N)[C@@H](O)[C@@H]1O` [Neamine] has an IC50 [1] of 25 µM.
With `NC[C@@H]1O[C@H](O[C@H]2[C@@H](O)[C@H](O[C@@H]3[C@@H](O)[C@H](N)C[C@H](N)[C@H]3O[C@H]3O[C@H](CN)[C@@H](O)[C@H](O)[C@H]3N)O[C@@H]2CO)[C@H](N)[C@@H](O)[C@@H]1O.O=S(=O)(O)O` [Neomycin Sulfate] the “% having seizures” value ([3]; 5 μg ICV) was 50%, the “% having seizures” value ([3]; 10 μg ICV) was 60% and the protection against seizures ([3]; five or ten micrograms ICV, in words) was “substantially protected against seizures”.
With `NC[C@@H]1O[C@H](O[C@H]2[C@@H](O)[C@H](O[C@@H]3[C@@H](O)[C@H](N)C[C@H](N)[C@H]3O[C@H]3O[C@H](CO)[C@@H](O)[C@H](O)[C@H]3N)O[C@@H]2CO)[C@H](N)[C@@H](O)[C@@H]1O` [Paromomycin] the IC50 [1] was 40 µM and the “L-channel IC50” value [2] was “No inhibition”.
In the case of `NC[C@H]1O[C@H](O[C@H]2[C@H](O[C@@H]3O[C@H](CO)[C@@H](O)[C@H]3O)[C@@H](O)[C@H](N)C[C@@H]2N)[C@H](N)[C@@H](O)[C@@H]1O` [Ribostamycin], the “L-channel IC50” value [2] is reported as “No inhibition”.
In the case of `CN[C@@H]1[C@@H](O)[C@@H](O[C@@H]2[C@@H](O)[C@H](O[C@H]3OC(CN)=CC[C@H]3N)[C@@H](N)C[C@H]2N)OC[C@]1(C)O` [Sisomicin], the “CA1 antidromic PS amplitude recovery” value ([7]; 1.0 mM, stimulated slices) is reported as 70±15%, the “CA1 orthodromic PS amplitude recovery” value ([7]; 1.0 mM, stimulated slices) is reported as 76±9% and the “CA1 antidromic PS recovery” value ([7]; 1.0 mM, unstimulated slices) is reported as 93±3%. The “CA1 orthodromic PS recovery” value ([7]; 1.0 mM, unstimulated slices) was 93±3%, the “hypoxic injury potential (HIP) profile” value ([7]; in words) was “HIP profiles evolved with a time course similar to untreated slices” and the “neuronal protection against hypoxia (summary)” value (from here on “neuronal protection”) ([7]; in words) was “restore orthodromic and antidromic activity; also recorded: high level of neuronal protection against hypoxia”. For the same compound, the “N-channel blocking potency (in words)” value [1] was “high potency”, the “N-channel blocking potency (in words)” value ([1]; listed as sisomicin) was “most potent N-channel blockers” and the IC50 [1] was 5 to 10 µM. The “L-channel IC50” value [2] was “No inhibition”.
Work on `CNC1C(O)C(NC)C2OC3(O)C(=O)CC(C)OC3OC2C1O` (stereo not drawn) [Spectiomycin] yielded an IC50 [1] greater than 1000 µM.
For `[H]/N=C(/N)N[C@H]1[C@H](O)[C@@H](O)[C@H](O[C@@H]2O[C@@H](C)[C@](O)(C=O)[C@H]2O[C@@H]2O[C@@H](CO)[C@H](O)[C@@H](O)[C@@H]2NC)[C@@H](N/C(N)=N\[H])[C@@H]1O` [Streptomycin], the IC50 [8] was 15 µM, the “protection of CA1 antidromic population spikes” value ([7]; 10 mM) was 38±22% and the “neuronal protection” value ([7]; in words) was “ineffective in reducing hypoxic damage to hippocampal tissue slices except when administered in high dosages; also recorded: only marginally effective and required high doses”. The “neuronal protection” value ([7]; in words, listed as streptomycin) was “some potency but at substantially lower levels; also recorded: lower degree of neuroprotection”, the “N-channel blocking potency (in words)” value [1] was “low potency” and the “N-channel blocking potency (in words)” value ([1]; listed as streptomycin) was “somewhat less potent N-channel blocker”. The IC50 [1] was 25 µM, the “L-channel IC50” value [2] was “No inhibition” and the IC50 ([9]; Homo sapiens, Platelet) was 5000 µM.
For `NC[C@H]1O[C@H](O[C@H]2[C@H](O)[C@@H](O[C@H]3O[C@H](CO)[C@@H](O)[C@H](N)[C@H]3O)[C@H](N)C[C@@H]2N)[C@H](N)C[C@@H]1O` [Tobramycin], the IC50 [1] was greater than 50 µM.
With Butirosin the IC50 [1] was 150 µM.
With Gentamicin the IC50 [8] was 5 µM, the “CA1 orthodromic PS recovery” value ([7]; 2.5 mM, stimulated slices) was 60±23% and the “neuronal protection” value ([7]; in words) was “restore orthodromic and antidromic activity; also recorded: high level of neuronal protection against hypoxia”. For the same compound, the “N-channel blocking potency (in words)” value [1] was “intermediate”, the “N-channel blocking potency (in words)” value ([1]; listed as gentamicin) was “most potent N-channel blockers” and the IC50 [1] was 10 µM. For the same compound, the “Seizure Score” value ([5]; 40 ug) was 4.9 and the IC50 [9] was 2000 µM.
